Active and inactive are the calls of the source.

Drawing on ChEMBL document CHEMBL1201862, “PubChem BioAssay data set” (2004), this text covers IC50 and AC50 for seven compounds.

Assay [1] has as its target Genome polyprotein (dengue virus type 2, UniProt P29990). Description: Dengue-2 NS5 methyltransferase inhibitors, primary screen, biochemical, confirmation dose response (AID 588689). It counts as functional.
The target in assay [2] is Adenosylmethionine-8-amino-7-oxononanoate aminotransferase (Mycobacterium tuberculosis, UniProt P9WQ81). Kind of assay: Mycobacterium tuberculosis BioA enzyme inhibitor Measured in Biochemical System Using Plate Reader - 2163-02_Inhibitor_Dose_CherryPick_Activity. It counts as functional, Mycobacterium tuberculosis UT205.
The target of assay [3] is T1, Caspase-3 (Homo sapiens, UniProt P42574).
T1 sequence (P42574 whole entry): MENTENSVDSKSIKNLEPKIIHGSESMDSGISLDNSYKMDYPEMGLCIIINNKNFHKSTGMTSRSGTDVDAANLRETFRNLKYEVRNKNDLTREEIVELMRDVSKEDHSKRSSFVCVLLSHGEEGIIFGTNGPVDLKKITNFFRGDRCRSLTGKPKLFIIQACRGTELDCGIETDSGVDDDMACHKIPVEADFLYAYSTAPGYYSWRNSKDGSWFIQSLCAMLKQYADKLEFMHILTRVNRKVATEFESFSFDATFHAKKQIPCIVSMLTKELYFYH
Description: caspase-3 inhibitors as off-family protease, SAR follow-up, selectivity assay for SENP protease inhibitor project, biochemical, luminescence, set 2 (AID 588599). It counts as functional.

Assay [4] concerns the target T2, Sentrin-specific protease 8 (Homo sapiens, UniProt Q96LD8).
T2 sequence (Q96LD8 whole entry): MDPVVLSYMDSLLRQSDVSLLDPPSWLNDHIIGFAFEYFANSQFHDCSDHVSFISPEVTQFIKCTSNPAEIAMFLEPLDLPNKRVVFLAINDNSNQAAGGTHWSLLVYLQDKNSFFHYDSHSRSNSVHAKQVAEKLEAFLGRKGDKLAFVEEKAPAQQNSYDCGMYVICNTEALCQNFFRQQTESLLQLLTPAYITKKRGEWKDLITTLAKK
Kind of assay: SENP8 protease inhibitors, SAR follow-up, biochemical, luminescence, set 2 (AID 588601). Type of assay: functional.

The target in assay [5] is T3, Sentrin-specific protease 7 (Homo sapiens, UniProt Q9BQF6).
T3 sequence (Q9BQF6 whole entry): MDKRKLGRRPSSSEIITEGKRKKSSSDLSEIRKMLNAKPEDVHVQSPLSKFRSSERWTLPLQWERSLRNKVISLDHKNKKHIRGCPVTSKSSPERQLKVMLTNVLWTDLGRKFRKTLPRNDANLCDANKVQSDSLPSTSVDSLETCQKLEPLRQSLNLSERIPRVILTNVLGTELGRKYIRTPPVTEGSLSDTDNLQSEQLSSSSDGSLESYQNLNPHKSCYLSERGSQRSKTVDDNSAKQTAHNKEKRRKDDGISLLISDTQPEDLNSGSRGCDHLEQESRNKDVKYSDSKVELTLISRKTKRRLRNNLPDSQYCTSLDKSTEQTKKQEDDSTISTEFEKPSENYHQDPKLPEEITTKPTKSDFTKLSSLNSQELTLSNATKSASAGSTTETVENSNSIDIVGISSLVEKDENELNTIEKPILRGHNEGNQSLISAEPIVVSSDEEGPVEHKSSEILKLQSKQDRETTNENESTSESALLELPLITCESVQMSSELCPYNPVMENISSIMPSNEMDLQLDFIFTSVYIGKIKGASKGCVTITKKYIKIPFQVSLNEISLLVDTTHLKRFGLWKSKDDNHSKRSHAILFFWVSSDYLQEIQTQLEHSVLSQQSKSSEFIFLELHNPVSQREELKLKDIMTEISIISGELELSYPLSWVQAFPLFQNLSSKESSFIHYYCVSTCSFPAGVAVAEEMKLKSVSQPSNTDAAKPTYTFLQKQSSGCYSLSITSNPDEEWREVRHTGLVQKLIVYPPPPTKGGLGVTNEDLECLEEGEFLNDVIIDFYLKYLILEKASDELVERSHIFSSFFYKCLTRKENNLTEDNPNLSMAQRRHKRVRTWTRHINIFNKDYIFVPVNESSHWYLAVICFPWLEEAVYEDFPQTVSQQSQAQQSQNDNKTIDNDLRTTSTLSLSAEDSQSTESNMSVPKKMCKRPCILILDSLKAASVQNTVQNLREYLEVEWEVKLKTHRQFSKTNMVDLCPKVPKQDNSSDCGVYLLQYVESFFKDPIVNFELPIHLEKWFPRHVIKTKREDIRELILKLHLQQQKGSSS
Kind of assay: SENP7 protease inhibitors, SAR follow-up, biochemical, luminescence, set 2 (AID 588600). Type of assay: functional.

The target of assay [6] is T4, Sentrin-specific protease 6 (Homo sapiens, UniProt Q9GZR1).
T4 sequence (Q9GZR1 whole entry): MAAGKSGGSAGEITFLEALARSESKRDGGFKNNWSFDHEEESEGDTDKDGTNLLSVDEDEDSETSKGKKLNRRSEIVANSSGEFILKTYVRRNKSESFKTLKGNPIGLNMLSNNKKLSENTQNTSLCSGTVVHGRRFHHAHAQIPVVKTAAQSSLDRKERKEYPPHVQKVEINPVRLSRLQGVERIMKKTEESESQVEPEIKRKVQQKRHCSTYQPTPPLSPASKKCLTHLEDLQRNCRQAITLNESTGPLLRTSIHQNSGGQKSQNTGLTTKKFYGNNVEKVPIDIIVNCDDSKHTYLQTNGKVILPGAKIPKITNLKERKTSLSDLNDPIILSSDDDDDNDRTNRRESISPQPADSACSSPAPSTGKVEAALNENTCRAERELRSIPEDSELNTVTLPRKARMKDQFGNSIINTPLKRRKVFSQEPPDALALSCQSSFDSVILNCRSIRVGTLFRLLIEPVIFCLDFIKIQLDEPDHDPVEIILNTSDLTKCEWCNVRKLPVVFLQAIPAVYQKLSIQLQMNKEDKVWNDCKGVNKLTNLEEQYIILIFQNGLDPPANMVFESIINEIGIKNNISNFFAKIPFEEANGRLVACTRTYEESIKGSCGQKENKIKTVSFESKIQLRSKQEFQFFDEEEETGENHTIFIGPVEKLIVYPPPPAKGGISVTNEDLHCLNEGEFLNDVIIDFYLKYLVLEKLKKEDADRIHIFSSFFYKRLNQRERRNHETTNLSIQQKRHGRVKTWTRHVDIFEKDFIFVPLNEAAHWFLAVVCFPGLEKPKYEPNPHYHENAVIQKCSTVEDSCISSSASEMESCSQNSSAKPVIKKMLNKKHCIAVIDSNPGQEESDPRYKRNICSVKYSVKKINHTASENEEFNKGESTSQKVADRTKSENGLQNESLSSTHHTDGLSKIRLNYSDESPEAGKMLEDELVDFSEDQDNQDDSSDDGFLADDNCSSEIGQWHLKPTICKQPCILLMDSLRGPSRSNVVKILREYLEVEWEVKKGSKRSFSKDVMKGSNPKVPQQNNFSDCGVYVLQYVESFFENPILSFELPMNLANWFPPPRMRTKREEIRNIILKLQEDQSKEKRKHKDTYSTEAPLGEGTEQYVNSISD
Kind of assay: SENP6 protease inhibitors, SAR follow-up, biochemical, luminescence, set 2 (AID 588598). It counts as functional.

In assay [7] the target is Aryl hydrocarbon receptor (Homo sapiens, UniProt P35869). As to conditions: Potency.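 Also: confirmatory quantitative high-throughput screen measuring activation of the AhR signaling pathway.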
The target in assay [8] is DNA dC->dU-editing enzyme APOBEC-3G (Homo sapiens, UniProt Q9HC16). Kind of assay: APOBEC3G deaminase inhibitors, SAR follow-up, biochemical, fluorescence, single-stranded DNA substrate (AID 602136). It counts as functional. The conditions noted are these: read-out: IC50_Mean.
For assay [9], the target named is DNA dC->dU-editing enzyme APOBEC-3A (Homo sapiens, UniProt P31941). Kind of assay: SAR analysis of small molecule inhibitors of APOBEC3A DNA Deaminase via a fluorescence-based single-stranded DNA deaminase assay. Type of assay: functional. As to conditions: read-out: IC50_Mean.
Assay [10] is described as follows: ARNT/TACC3 interaction disruptors, potency, confirmation, biochemical, AlphaScreen, cherry-picked samples (AID 651703).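 Also: His-tagged ARNT PAS-B domain paired with GST-TACC3 E629A dimer coactivator fragment; potency of inhibitors that break up the complex and lower AlphaScreen signal.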 Type of assay: functional, Homo sapiens.
The target of assay [11] is T5, Interleukin-8 (Homo sapiens, UniProt P10145). Kind of assay: Dose Response confirmation of uHTS small molecule hits for cystic fibrosis induced NFkb Inhibitors in a TNFa-induced IL8 counterscreen. Type of assay: functional. The conditions noted are these: read-out: IC50_Mean.
Assay [12] addresses T5, Interleukin-8. Kind of assay: Dose Response confirmation of uHTS small molecule hits for cystic fibrosis induced NFkb Inhibitors in a PAF-induced IL8 counterscreen. It counts as functional. As to conditions: read-out: IC50_Mean.
Assay [13] deals with T2, Sentrin-specific protease 8. Description: SENP8 protease inhibitors, SAR follow-up, biochemical, luminescence (AID 504501). Type of assay: functional.
The target of assay [14] is T1, Caspase-3. Kind of assay: SAR Analysis of small molecule inhibitors of Sentrin-specific proteases (SENPs) using a Caspase-3 Selectivity assay. [Related pubchem assays (depositor defined):AID2540, AID2599, AID434973, AID489001]. Type of assay: functional.
Assay [15] has as its target T4, Sentrin-specific protease 6. Description: SAR Analysis of small molecule inhibitors of Sentrin-specific protease 6 (SENP6) using a Luminescent assay. [Related pubchem assays (depositor defined):AID2582, AID2599]. Type of assay: functional.
Assay [16] addresses T3, Sentrin-specific protease 7. Description: SENP7 protease inhibitors, SAR follow-up, biochemical, luminescence (AID 504497). It counts as functional.

T5 sequence (P10145 whole entry): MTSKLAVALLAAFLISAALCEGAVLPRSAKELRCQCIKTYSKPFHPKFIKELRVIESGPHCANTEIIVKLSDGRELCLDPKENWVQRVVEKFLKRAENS
DNA dC->dU-editing enzyme APOBEC-3G, sequence (Q9HC16 whole entry): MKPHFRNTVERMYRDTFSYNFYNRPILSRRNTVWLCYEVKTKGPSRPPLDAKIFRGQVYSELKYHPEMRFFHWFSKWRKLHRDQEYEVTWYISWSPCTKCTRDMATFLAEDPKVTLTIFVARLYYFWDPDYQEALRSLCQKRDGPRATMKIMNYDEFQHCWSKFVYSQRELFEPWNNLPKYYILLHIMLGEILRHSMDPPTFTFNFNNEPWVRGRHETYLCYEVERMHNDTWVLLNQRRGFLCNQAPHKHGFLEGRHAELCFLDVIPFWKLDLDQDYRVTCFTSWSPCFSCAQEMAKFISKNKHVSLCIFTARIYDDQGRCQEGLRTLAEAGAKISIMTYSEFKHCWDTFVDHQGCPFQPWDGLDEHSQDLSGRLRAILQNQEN
Aryl hydrocarbon receptor, sequence (P35869 whole entry): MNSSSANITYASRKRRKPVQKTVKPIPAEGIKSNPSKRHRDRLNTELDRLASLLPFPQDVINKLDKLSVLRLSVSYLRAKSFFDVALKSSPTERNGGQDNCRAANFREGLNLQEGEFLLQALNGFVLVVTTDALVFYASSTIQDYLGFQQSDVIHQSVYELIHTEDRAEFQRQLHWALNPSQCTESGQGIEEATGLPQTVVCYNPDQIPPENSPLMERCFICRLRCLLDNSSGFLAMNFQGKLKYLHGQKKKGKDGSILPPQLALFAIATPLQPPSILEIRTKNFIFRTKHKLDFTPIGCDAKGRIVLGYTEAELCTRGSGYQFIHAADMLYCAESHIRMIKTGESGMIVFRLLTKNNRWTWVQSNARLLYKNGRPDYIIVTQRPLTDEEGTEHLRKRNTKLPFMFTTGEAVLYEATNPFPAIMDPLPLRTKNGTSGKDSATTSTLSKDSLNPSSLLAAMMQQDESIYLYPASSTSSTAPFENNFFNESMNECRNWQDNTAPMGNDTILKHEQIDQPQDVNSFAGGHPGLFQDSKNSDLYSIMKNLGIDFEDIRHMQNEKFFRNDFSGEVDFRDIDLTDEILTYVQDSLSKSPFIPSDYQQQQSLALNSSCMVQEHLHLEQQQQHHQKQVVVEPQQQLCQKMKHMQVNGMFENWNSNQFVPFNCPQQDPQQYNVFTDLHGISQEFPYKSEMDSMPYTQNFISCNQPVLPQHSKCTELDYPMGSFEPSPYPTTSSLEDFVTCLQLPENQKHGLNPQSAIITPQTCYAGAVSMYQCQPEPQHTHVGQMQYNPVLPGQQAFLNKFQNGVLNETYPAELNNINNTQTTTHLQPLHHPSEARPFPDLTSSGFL
Genome polyprotein, sequence (P29990 2492-3391 limits assumed): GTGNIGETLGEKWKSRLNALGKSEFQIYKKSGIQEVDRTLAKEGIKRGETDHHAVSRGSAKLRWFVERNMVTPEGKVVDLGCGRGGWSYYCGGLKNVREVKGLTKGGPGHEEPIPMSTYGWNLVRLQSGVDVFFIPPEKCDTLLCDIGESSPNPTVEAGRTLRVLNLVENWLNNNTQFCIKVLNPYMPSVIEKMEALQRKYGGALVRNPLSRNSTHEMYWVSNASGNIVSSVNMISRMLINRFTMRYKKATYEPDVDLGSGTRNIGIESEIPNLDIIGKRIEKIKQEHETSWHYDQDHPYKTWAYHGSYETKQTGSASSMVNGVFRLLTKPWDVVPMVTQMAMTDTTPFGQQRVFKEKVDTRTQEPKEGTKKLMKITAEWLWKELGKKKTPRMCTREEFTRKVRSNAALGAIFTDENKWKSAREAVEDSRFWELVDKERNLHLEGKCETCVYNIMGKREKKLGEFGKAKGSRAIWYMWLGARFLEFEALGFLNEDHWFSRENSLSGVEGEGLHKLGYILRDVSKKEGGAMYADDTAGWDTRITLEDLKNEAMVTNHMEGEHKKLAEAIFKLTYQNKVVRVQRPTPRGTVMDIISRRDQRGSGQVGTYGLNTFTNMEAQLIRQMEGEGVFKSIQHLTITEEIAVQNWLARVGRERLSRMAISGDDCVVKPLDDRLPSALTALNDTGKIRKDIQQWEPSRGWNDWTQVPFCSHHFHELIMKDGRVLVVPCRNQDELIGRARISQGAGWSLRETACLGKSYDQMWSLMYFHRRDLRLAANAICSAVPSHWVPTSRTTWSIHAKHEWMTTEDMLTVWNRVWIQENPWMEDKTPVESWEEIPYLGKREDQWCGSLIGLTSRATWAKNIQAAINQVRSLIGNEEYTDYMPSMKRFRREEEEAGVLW
DNA dC->dU-editing enzyme APOBEC-3A, sequence (P31941 whole entry, the tested form may be a part): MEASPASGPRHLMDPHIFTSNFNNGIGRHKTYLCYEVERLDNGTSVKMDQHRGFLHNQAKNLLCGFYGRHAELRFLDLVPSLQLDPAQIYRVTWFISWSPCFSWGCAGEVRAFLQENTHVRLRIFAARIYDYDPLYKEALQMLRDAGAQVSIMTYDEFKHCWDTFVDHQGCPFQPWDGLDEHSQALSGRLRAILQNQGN
Adenosylmethionine-8-amino-7-oxononanoate aminotransferase, sequence (P9WQ81 whole entry): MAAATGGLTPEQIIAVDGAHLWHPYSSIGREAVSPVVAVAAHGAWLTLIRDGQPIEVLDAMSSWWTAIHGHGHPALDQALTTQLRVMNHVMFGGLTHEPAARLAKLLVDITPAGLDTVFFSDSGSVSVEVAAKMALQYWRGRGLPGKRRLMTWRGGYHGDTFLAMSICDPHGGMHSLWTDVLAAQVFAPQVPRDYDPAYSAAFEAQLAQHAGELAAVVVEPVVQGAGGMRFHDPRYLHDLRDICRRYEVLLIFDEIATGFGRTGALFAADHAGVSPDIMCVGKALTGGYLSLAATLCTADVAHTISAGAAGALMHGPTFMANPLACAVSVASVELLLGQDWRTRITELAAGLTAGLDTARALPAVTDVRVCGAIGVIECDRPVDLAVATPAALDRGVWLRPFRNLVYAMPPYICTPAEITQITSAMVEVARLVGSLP

Take `O=C(O)CN1C(=O)/C(=C\c2cc(Br)ccc2OCc2ccc([N+](=O)[O-])cc2)SC1=S`: in assay [1], the IC50 is 30.3 µM (active). The AC50 in assay [2] was 11.7 µM (active).
`COc1cccc(-n2nnc3c(N4CCN(C(=O)C(=O)c5c(C)[nH]c6ccccc56)CC4)ncnc32)c1`: the IC50 in assay [3], in assay [4], in assay [5] and in [6] was > 99 µM (inactive) in each case.
Regarding `CC(C)OC(=O)Nc1cccc(Cl)c1` [CHLORPROPHAM], the AC50 in assay [7] was 63.1 µM (inconclusive).
As to `COc1ccc(-c2nnc(SCc3nc4ccsc4c(=O)[nH]3)[nH]2)cc1`, the IC50 is 66.4 µM (inactive) in [8] and > 99 µM (inactive) in [9].
With `C/C(=N\NC(=O)c1ccncc1)C12CC3CC(CC(C3)C1)C2`, the AC50 in [10] is 88.3 µM (active).
`C=CCn1c(Oc2ccccc2F)nc2c1c(=O)n(C)c(=O)n2C`: the IC50 in assay [11] is > 79 µM (inactive); in [12] it was 51.1 µM (inactive).
With `CCCCc1ccc2nc(NC(=O)c3ccc(Br)o3)sc2c1`, the IC50 in assay [13] was > 99 µM (inactive); in [3], 5.94 µM (active); in [4] it was 5.7 µM (active); in [14], 11 µM (active); in assay [5], 8.4 µM (active); in assay [15] it was > 99 µM (inactive). For the same compound, the IC50 in assay [6] is 6.66 µM (active); in [16], 3.8 µM (active).
